These results are taken from publication PMC11726634, “Probing the Histamine H1 Receptor Binding Site to Explore Ligand Binding Kinetics” (Journal of Medicinal Chemistry, 2024).

Counter-ions that a name gives are not always drawn. Like-named read-outs stand apart in the source and are kept apart here.

The target of experiment [1] is T1, human H1R (Homo sapiens, UniProt P35367).
T1 construct: expressed in transfected cells; host or cells: HEK293T cells, transient transfection with pcDEF3, used as cell homogenate
T1 sequence (P35367 whole entry): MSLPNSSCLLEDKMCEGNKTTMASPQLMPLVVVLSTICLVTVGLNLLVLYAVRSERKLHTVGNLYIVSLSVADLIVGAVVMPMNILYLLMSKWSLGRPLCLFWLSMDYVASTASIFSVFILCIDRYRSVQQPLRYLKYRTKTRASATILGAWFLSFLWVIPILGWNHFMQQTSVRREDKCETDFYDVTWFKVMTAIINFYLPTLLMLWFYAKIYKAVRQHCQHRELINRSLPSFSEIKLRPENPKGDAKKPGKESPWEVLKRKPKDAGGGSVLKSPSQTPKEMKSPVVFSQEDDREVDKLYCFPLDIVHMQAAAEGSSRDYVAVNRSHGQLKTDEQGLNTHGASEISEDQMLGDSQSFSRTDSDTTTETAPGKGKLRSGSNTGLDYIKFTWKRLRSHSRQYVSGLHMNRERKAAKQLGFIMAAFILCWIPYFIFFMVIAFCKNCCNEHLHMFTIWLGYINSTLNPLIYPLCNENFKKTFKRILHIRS
Put plainly: Competition association binding with [3H]-mepyramine (Motulsky and Mahan model). The note with it: for KE (kinetic efficiency = RT/N heavy atoms): RT divided by number of heavy atoms; for pKD,calc: calculated from kon and koff of individual experiments. Here is the method: Binding in the presence of mianserin was assumed to be the baseline (i.e., t = 0 min). Binding over time was baseline corrected and then analyzed by nonlinear regression using the Motulsky and Mahan model[25] (eq 5). This model assumes that both the radioligand and the unlabeled ligand bind competitively to the same binding site according to a one-step binding mechanism.

Experiment [2] deals with T1, human H1R. Nature of the experiment: [3H]-mepyramine competition binding (radioligand displacement, 4 h) on HEK293T cell homogenates. To be noted: for pKi: [3H]mepyramine displacement curves after 4 h incubation, HEK293T cell homogenate expressing H1R, 25 °C, mean and SEM, N ≥ 3. The protocol: Protein content of membrane homogenates was determined using a BCA protein assay. […] Membrane preparation, termination of the binding reaction and quantifying radioactivity as described here, were performed for all binding experiments.Total binding and nonspecific binding (i.e., in the presence of mianserin) was analyzed by nonlinear regression using eqs 1 (nonspecific binding) and 2 (total binding).
These values were converted to Ki values using the Cheng–Prusoff equation.[24]
For orientation: Loss of bound radioactivity is the signal in a displacement assay; it reports binding, not function.

Where [3] appears, read: competitive binding of [3H]mepyramine over time, unlabeled ligand at ±10 times Ki, 25 °C, mean and SEM, N ≥ 3.
The mark [4] stands for this setting: competitive binding of [3H]mepyramine over time, unlabeled ligand at ±10 times Ki, 25 °C, mean and SEM, N ≥ 3, read-out: koff (converted).
[5] abbreviates: compared with fragment 1 (RT 2.0 min).

Consider “2-(3-Benzyl-2-((1-methylpiperidin-4-yl)oxy)phenyl)acetic Acid [3b]”, for which the “KE (kinetic efficiency = RT/N heavy atoms)” value (“KE” below) at human H1R [1] amounted to 0.48. Besides, the “pKD,calc” value at human H1R [1] (mean and SEM, N ≥ 3) is listed as 7.4 ± 0.0. Further, at human H1R [1] (setting [3]), the koff is 0.00138 ± 6.7e-05 s⁻¹ and the kon is listed as 2.08 ± 0.10 10^6· M^−1·min^−1. Also, the pKi at human H1R [2] stood at 7.4 ± 0.1.

As for `CN1CCC(Oc2cc(C(=O)O)ccc2Cc2ccccc2)CC1` [2a, 4-Benzyl-3-((1-methylpiperidin-4-yl)oxy)benzoic Acid], the “KE” value on human H1R [1] came to 0.05. Moreover, the “pKD,calc” value at human H1R [1] (mean and SEM, N ≥ 3) is recorded as 4.8 ± 0.1. Besides, the koff on human H1R [1] (setting [4]) is 0.0167 s⁻¹. On human H1R [1] (read-out: kon (converted)), the kon is 1000 M⁻¹ s⁻¹. The compound further gave a pKi on human H1R [2] below 5.

With `CN1CCC(Oc2cc(CC(=O)O)ccc2Cc2ccccc2)CC1` [2b, 2-(4-Benzyl-3-((1-methylpiperidin-4-yl)oxy)phenyl)acetic Acid], at human H1R [1], the “KE” value stood at 0.24. Also, on human H1R [1] (mean and SEM, N ≥ 3), the “pKD,calc” value is 6.8 ± 0.2. Also, the koff on human H1R [1] (setting [4]) is 0.00283 s⁻¹. Further, the kon at human H1R [1] (read-out: kon (converted)) was 21700 M⁻¹ s⁻¹. Moreover, the pKi at human H1R [2] is listed as 6.9 ± 0.1.

Take `CN1CCC(Oc2cc(/C=C/C(=O)O)ccc2Cc2ccccc2)CC1` [2c, (E)-3-(4-Benzyl-3-((1-methylpiperidin-4-yl)oxy)phenyl)acrylic Acid]: on human H1R [1], the “KE” value amounted to 0.69. Besides, the “pKD,calc” value at human H1R [1] (mean and SEM, N ≥ 3) is given as 7.0 ± 0.0. Moreover, the “increase in RT relative to 1” value on human H1R [1] (setting [5]) turned out to be 9 fold. In addition, the koff at human H1R [1] (setting [4]) is 0.000917 s⁻¹. For the same compound, the kon at human H1R [1] (read-out: kon (converted)) was 10300 M⁻¹ s⁻¹. Moreover, the pKi at human H1R [2] turned out to be 6.5 ± 0.1.

For `CN1CCC(Oc2cc(CO)ccc2Cc2ccccc2)CC1` [2d, (4-Benzyl-3-((1-methylpiperidin-4-yl)oxy)phenyl)methanol Hemifumarate], on human H1R [1], the “increase in RT relative to 1” value came out at 2 fold and the “KE” value was determined as 0.17. Moreover, the “pKD,calc” value on human H1R [1] (mean and SEM, N ≥ 3) is reported as 8.6 ± 0.0. Besides, on human H1R [1] (compared with 1), the “decrease of association rate constant (kon) relative to 1” value is listed as 2 fold. At human H1R [1] (read-out: koff (converted)), the koff was 0.00417 s⁻¹. The kon at human H1R [1] (read-out: kon (converted)) is 1.63e+06 M⁻¹ s⁻¹. The pKi at human H1R [2] is listed as 8.4 ± 0.1.

`COc1ccc(Cc2ccccc2)c(OC2CCN(C)CC2)c1` [2e, 4-(2-Benzyl-5-methoxyphenoxy)-1-methylpiperidine Fumarate]: the “KE” value on human H1R [1] was 0.09. For the same compound, the “pKD,calc” value on human H1R [1] (mean and SEM, N ≥ 3) was 8.1 ± 0.1. In addition, on human H1R [1] (read-out: koff (converted)), the koff was 0.00833 s⁻¹. On human H1R [1] (read-out: kon (converted)), the kon was 1e+06 M⁻¹ s⁻¹. This compound also had a pKi on human H1R [2] of 7.8 ± 0.1.

For the compound `CN1CCC(Oc2c(Cc3ccccc3)cccc2C(=O)O)CC1` [3a, 3-Benzyl-2-((1-methylpiperidin-4-yl)oxy)benzoic Acid], the “KE” value at human H1R [1] stood at 0.18. Besides, the “pKD,calc” value at human H1R [1] (mean and SEM, N ≥ 3) is on record as 6.3 ± 0.0. The koff at human H1R [1] (setting [4]) is 0.004 s⁻¹. Also, the kon on human H1R [1] (read-out: kon (converted)) is 8330 M⁻¹ s⁻¹. For the same compound, on human H1R [2], the pKi was determined as 6.2 ± 0.1.

As for `CN1CCC(Oc2c(/C=C/C(=O)O)cccc2Cc2ccccc2)CC1` [3c, (E)-3-(3-Benzyl-2-((1-methylpiperidin-4-yl)oxy)phenyl)acrylic Acid], at human H1R [1], the “KE” value was 0.12. Besides, on human H1R [1] (mean and SEM, N ≥ 3), the “pKD,calc” value was 6.7 ± 0.0. Also, the kon on human H1R [1] (read-out: kon (converted)) is 26700 M⁻¹ s⁻¹. On human H1R [2], this compound displayed a pKi of 6.6 ± 0.1.

Turning to `CN1CCC(Oc2c(CO)cccc2Cc2ccccc2)CC1` [3d, (3-Benzyl-2-((1-methylpiperidin-4-yl)oxy)phenyl)methanol], the “KE” value at human H1R [1] came out at 0.06. In addition, the “pKD,calc” value on human H1R [1] (mean and SEM, N ≥ 3) was 7.6 ± 0.1. Also, the koff on human H1R [1] (setting [4]) was 0.0122 s⁻¹. Also, on human H1R [1] (read-out: kon (converted)), the kon is 450000 M⁻¹ s⁻¹. The same compound registered a pKi at human H1R [2] of 7.4 ± 0.0. Besides, at human H1R [2] (compared with 1), the “lower binding affinity relative to 1” value is reported as 10 fold.

In the case of `O=C(O)CCN1CCC(Oc2ccccc2Cc2ccccc2)CC1` [4a, 3-(4-(2-Benzylphenoxy)piperidin-1-yl)propanoic Acid Hydrochloride], the “KE” value on human H1R [1] is given as 0.36. The “pKD,calc” value at human H1R [1] (mean and SEM, N ≥ 3) is reported as 7.4 ± 0.0. The koff at human H1R [1] (setting [4]) is 0.00183 s⁻¹. For the same compound, the kon on human H1R [1] (read-out: kon (converted)) is 48300 M⁻¹ s⁻¹. The pKi on human H1R [2] was 7.5 ± 0.1.

Take `O=C(O)CCCN1CCC(Oc2ccccc2Cc2ccccc2)CC1` [4b, 4-(4-(2-Benzylphenoxy)piperidin-1-yl)butanoic Acid Hydrochloride]: the “KE” value at human H1R [1] came out at 0.38. In addition, the “pKD,calc” value at human H1R [1] (mean and SEM, N ≥ 3) was 7.5 ± 0.0. The koff at human H1R [1] (setting [4]) is 0.00167 s⁻¹. In addition, the kon on human H1R [1] (read-out: kon (converted)) was 48300 M⁻¹ s⁻¹. At human H1R [2], this compound yielded a pKi of 7.6 ± 0.1.

Consider `O=C(O)CCCCN1CCC(Oc2ccccc2Cc2ccccc2)CC1` [4c, 5-(4-(2-Benzylphenoxy)piperidin-1-yl)pentanoic Acid Hydrochloride], for which the “KE” value at human H1R [1] turned out to be 0.85. Moreover, the “pKD,calc” value on human H1R [1] (mean and SEM, N ≥ 3) is 7.9 ± 0.1. In addition, the “increase in RT relative to 1” value at human H1R [1] (setting [5]) is given as above 10 fold. The koff at human H1R [1] (setting [4]) was 0.00075 s⁻¹. For the same compound, the kon at human H1R [1] (read-out: kon (converted)) was 53300 M⁻¹ s⁻¹. The pKi at human H1R [2] was found to be 7.8 ± 0.1.

In the case of `O=C(O)CCCCCN1CCC(Oc2ccccc2Cc2ccccc2)CC1` [4d, 6-(4-(2-Benzylphenoxy)piperidin-1-yl)hexanoic Acid Hydrochloride], the “KE” value on human H1R [1] is reported as 0.61. For the same compound, the “pKD,calc” value on human H1R [1] (mean and SEM, N ≥ 3) was 7.7 ± 0.1. Further, the koff on human H1R [1] (setting [4]) is 0.001 s⁻¹. Also, the kon at human H1R [1] (read-out: kon (converted)) was 66700 M⁻¹ s⁻¹. At human H1R [2], the pKi turned out to be 7.8 ± 0.0.

`O=C(O)CCCCCCN1CCC(Oc2ccccc2Cc2ccccc2)CC1` [4e, 7-(4-(2-Benzylphenoxy)piperidin-1-yl)heptanoic Acid Hydrochloride]: the “KE” value on human H1R [1] was 0.45. The “pKD,calc” value at human H1R [1] (mean and SEM, N ≥ 3) is recorded as 7.5 ± 0.0. Also, the koff on human H1R [1] (setting [4]) was 0.00127 s⁻¹. In addition, the kon at human H1R [1] (read-out: kon (converted)) is 41700 M⁻¹ s⁻¹. In addition, the pKi at human H1R [2] was 7.7 ± 0.2.

Take `O=C(O)CCCCCCCN1CCC(Oc2ccccc2Cc2ccccc2)CC1` [4f, 8-(4-(2-Benzylphenoxy)piperidin-1-yl)octanoic Acid Hydrochloride]: the “KE” value at human H1R [1] worked out at 0.50. The “pKD,calc” value on human H1R [1] (mean and SEM, N ≥ 3) is recorded as 7.5 ± 0.0. In addition, the koff on human H1R [1] (setting [4]) is 0.00115 s⁻¹. Further, the kon at human H1R [1] (read-out: kon (converted)) was 39500 M⁻¹ s⁻¹. For the same compound, the pKi at human H1R [2] was 7.6 ± 0.1.

On to `CN(C)CC/C=C1/c2ccccc2COc2ccc(CC(=O)O)cc21` [Olopatadine, olopatadine, reference compound], for which the “increase in RT compared to first-generation analog” value on human H1R [1] turned out to be 7 fold.

On to `c1ccc(Cc2ccccc2OC2CCN(CCCCc3nnn[nH]3)CC2)cc1` [compound 27, 1-(4-(1H-Tetrazol-5-yl)butyl)-4-(2-benzylphenoxy)piperidine], for which the “KE” value at human H1R [1] was 1.66. Further, the “pKD,calc” value at human H1R [1] (mean and SEM, N ≥ 3) is recorded as 8.2 ± 0.02. Also, on human H1R [1] (setting [4]), the koff was 0.00035 s⁻¹. The kon at human H1R [1] (read-out: kon (converted)) was 61700 M⁻¹ s⁻¹. The pKi at human H1R [2] is 8.1 ± 0.1.

What is called koff is the first-order rate constant of dissociation. As usually defined, the kon is a measure of how fast the partners come together. A word on the pKi: it is the negative decadic logarithm of the Ki, by convention in mol/L. Read a high pKi as a small Ki.
